# Measurements published in PubChem BioAssay AID328 (DTP/NCI, 2004).
# Several values for one entry are separate records, joined by “and”; a condition that tells them apart may be missing. Equal values may be shown once. Inconclusive results and toxic doses are left out.
# Test system: BDF1 mice, P388 leukemia ip, median survival T/C
# Assay: NCI In Vivo Anticancer Drug Screen. Data for tumor model P388 Leukemia (intraperitoneal) in B6D2F1 (BDF1) mice
# Settings: endpoint: median survival time, higher = longer survival
# Outline: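 Vehicle-dosed animals serve as the reference; survival of compound-dosed, tumour-implanted mice is divided by it.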
# [1] = dose: 100.0 mg/kg/injection, schedule: Q01DX009 (ip), vehicle: Klucel (hydroxypropylcellulose) (HPC)
# [2] = dose: 100.0 mg/kg/injection, schedule: Q01DX009 (ip), vehicle: saline
# [3] = dose: 200.0 mg/kg/injection, schedule: Q01DX009 (ip), vehicle: saline
# [4] = dose: 200.0 mg/kg/injection, schedule: Q04DX003 (ip), vehicle: saline
# [5] = dose: 400.0 mg/kg/injection, schedule: Q04DX003 (ip), vehicle: saline
# [6] = dose: 100.0 mg/kg/injection, schedule: Q01DX009 (ip), vehicle: saline with Tween-80
# [7] = dose: 100.0 mg/kg/injection, schedule: Q04DX003 (ip), vehicle: saline with Tween-80
# [8] = dose: 200.0 mg/kg/injection, schedule: Q01DX009 (ip), vehicle: saline with Tween-80
# [9] = dose: 200.0 mg/kg/injection, schedule: Q04DX003 (ip), vehicle: saline with Tween-80
# [10] = dose: 400.0 mg/kg/injection, schedule: Q04DX003 (ip), vehicle: saline with Tween-80
# [11] = dose: 25.0 mg/kg/injection, schedule: Q01DX009 (ip), vehicle: saline with Tween-80
# [12] = dose: 6.25 mg/kg/injection, schedule: Q01DX009 (ip), vehicle: water
# [13] = dose: 12.5 mg/kg/injection, schedule: Q01DX009 (ip), vehicle: water
# [14] = dose: 50.0 mg/kg/injection, schedule: Q01DX009 (ip), vehicle: saline with Tween-80
# [15] = dose: 400.0 mg/kg/injection, schedule: Q01DX009 (ip), vehicle: saline with Tween-80
# [16] = dose: 100.0 mg/kg/injection, schedule: Q04DX003 (ip), vehicle: saline
smiles,measurement,setting,value
COc1cccc2c1C(=O)c1c(O)c3c(c(O)c1C2=O)C[C@@](O)(C(=O)COC(=O)Cc1ccccc1)C[C@@H]3OC1CC(N)C(O)C(C)O1 (stereo partly drawn),T/C,"dose: 1.3 mg/kg/injection, schedule: Q01DX009 (ip), vehicle: saline",162 % of control
same,T/C,"dose: 2.0 mg/kg/injection, schedule: Q01DX009 (ip), vehicle: saline",200 % of control
CCC(C)C(C)(COC(N)=O)COC(N)=O (stereo not drawn),T/C,[1],90 % of control
same,T/C,"dose: 200.0 mg/kg/injection, schedule: Q01DX009 (ip), vehicle: Klucel (hydroxypropylcellulose) (HPC)",86 % of control
same,T/C,"dose: 400.0 mg/kg/injection, schedule: Q01DX009 (ip), vehicle: Klucel (hydroxypropylcellulose) (HPC)",95 % of control
O=C(O)C1CC[N-]CC1.O=C(O)C1CC[N-]CC1.O=C(O)C1CC[N-]CC1.O=C(O)C1CC[N-]CC1.[Br][Rh][Br],T/C,"dose: 50.0 mg/kg/injection, schedule: Q01DX009 (ip), vehicle: saline",111 % of control
same,T/C,[2],92 % of control and 93 % of control
same,T/C,[3],93 % of control and 117 % of control
same,T/C,[4],116 % of control
same,T/C,[5],119 % of control
O=C1C2ON=C(c3ccccc3)C2C(=O)N1OS(=O)(=O)c1ccccc1 (stereo not drawn),T/C,[6],100 % of control
same,T/C,[7],100 % of control
same,T/C,[8],109 % of control
same,T/C,[9],100 % of control
same,T/C,[10],100 % of control
CCCCCCCCCCCCCCSC(CC(=O)O)C(=O)O (stereo not drawn),T/C,"dose: 15.0 mg/kg/injection, schedule: Q01DX009 (ip), vehicle: saline with Tween-80",87 % of control
same,T/C,"dose: 30.0 mg/kg/injection, schedule: Q01DX009 (ip), vehicle: saline with Tween-80",98 % of control
same,T/C,"dose: 60.0 mg/kg/injection, schedule: Q01DX009 (ip), vehicle: saline with Tween-80",94 % of control
COc1cc2oc3c(c(=O)c2c(O)c1/C=C/C(C)C)C(C=C(C)C)Oc1cc(O)ccc1-3 (stereo not drawn),T/C,"dose: 6.25 mg/kg/injection, schedule: Q01DX009 (ip), vehicle: Klucel (hydroxypropylcellulose) (HPC)",94 % of control
same,T/C,"dose: 12.5 mg/kg/injection, schedule: Q01DX009 (ip), vehicle: Klucel (hydroxypropylcellulose) (HPC)",110 % of control
same,T/C,"dose: 25.0 mg/kg/injection, schedule: Q01DX009 (ip), vehicle: Klucel (hydroxypropylcellulose) (HPC)",108 % of control
same,T/C,"dose: 50.0 mg/kg/injection, schedule: Q01DX009 (ip), vehicle: Klucel (hydroxypropylcellulose) (HPC)",100 % of control
same,T/C,[1],107 % of control
CCN1CCCC(Nc2nc(Nc3cc(Cl)cc(Cl)c3)nc3ccc(Cl)cc23)C1 (stereo not drawn),T/C,"dose: 6.25 mg/kg/injection, schedule: Q01DX009 (ip), vehicle: saline with Tween-80",122 % of control
same,T/C,"dose: 12.5 mg/kg/injection, schedule: Q01DX009 (ip), vehicle: saline with Tween-80",109 % of control
same,T/C,[11],109 % of control
Cc1ccc2nc(-c3ccccc3N)[nH]c2c1,T/C,[7],100 % of control
same,T/C,[9],104 % of control
same,T/C,[10],90 % of control
C/C=C(/C)C(=O)O[C@H]1CC[N+]2([O-])CC=C(COC(=O)[C@@](O)([C@H](C)OC)C(C)(C)O)[C@H]12 (stereo partly drawn),T/C,"dose: 40.0 mg/kg/injection, schedule: Q01DX010 (ip), vehicle: saline",105 % of control
same,T/C,"dose: 50.0 mg/kg/injection, schedule: Q01DX010 (ip), vehicle: saline",86 % of control
same,T/C,"dose: 80.0 mg/kg/injection, schedule: Q01DX010 (ip), vehicle: saline",111 % of control
CCc1ccc(C(=O)N/N=C(\C)[C@]2(O)Cc3c(O)c4c(c(O)c3[C@@H](OC3CC(N)C(O)C(C)O3)C2)C(=O)c2c(OC)cccc2C4=O)cc1 (stereo partly drawn),T/C,"dose: 1.56 mg/kg/injection, schedule: Q01DX009 (ip), vehicle: water",117 % of control
same,T/C,"dose: 3.12 mg/kg/injection, schedule: Q01DX009 (ip), vehicle: water",161 % of control
same,T/C,[12],152 % of control and 166 % of control
same,T/C,[13],95 % of control and 122 % of control
COc1ccc(C(O)(CS(C)(=O)=O)c2cccs2)cc1 (stereo not drawn),T/C,[14],110 % of control
same,T/C,[6],110 % of control
same,T/C,[8],103 % of control
Cc1ccccc1N1C(=O)CSC1=S,T/C,[7],100 % of control
same,T/C,"dose: 132.0 mg/kg/injection, schedule: Q04DX003 (ip), vehicle: saline with Tween-80",90 % of control
same,T/C,[9],100 % of control
same,T/C,"dose: 300.0 mg/kg/injection, schedule: Q04DX003 (ip), vehicle: saline with Tween-80",100 % of control
same,T/C,[10],90 % of control
O=C(/C=C/c1cccc(O)c1)c1ccccc1,T/C,[14],91 % of control
same,T/C,[6],99 % of control
same,T/C,[8],101 % of control
CC(C)=NN1C(=O)c2ccccc2C1=O,T/C,[11],101 % of control
same,T/C,[14],101 % of control
same,T/C,[6],100 % of control
O=c1cc(O)cc(/C=C/c2ccc(O)cc2)o1,T/C,[6],96 % of control
same,T/C,[8],107 % of control
same,T/C,"dose: 265.0 mg/kg/injection, schedule: Q01DX009 (ip), vehicle: saline with Tween-80",90 % of control
same,T/C,[15],98 % of control
Nc1nc(N)c(-c2ccccc2)c(C(=O)O)n1,T/C,"dose: 100.0 mg/kg/injection, schedule: Q01DX001 (ip), vehicle: Klucel (hydroxypropylcellulose) (HPC)",109 % of control
same,T/C,"dose: 200.0 mg/kg/injection, schedule: Q01DX001 (ip), vehicle: Klucel (hydroxypropylcellulose) (HPC)",118 % of control
same,T/C,"dose: 400.0 mg/kg/injection, schedule: Q01DX001 (ip), vehicle: Klucel (hydroxypropylcellulose) (HPC)",113 % of control
O=[N+]([O-])c1ccc(N/N=C\c2ccc3ccccc3n2)cc1,T/C,[2],104 % of control
same,T/C,[16],118 % of control
same,T/C,[3],109 % of control
same,T/C,[4],104 % of control
same,T/C,[5],109 % of control
CC1(c2ccco2)NC(=O)NC1=O (stereo not drawn),T/C,[6],105 % of control
same,T/C,[8],105 % of control
same,T/C,[15],105 % of control
CN(C)CCCNC1=CC(=O)c2ccccc2C1=O,T/C,"dose: 1.56 mg/kg/injection, schedule: Q04DX003 (ip), vehicle: water",108 % of control
same,T/C,"dose: 3.12 mg/kg/injection, schedule: Q04DX003 (ip), vehicle: water",97 % of control and 98 % of control
same,T/C,[12],99 % of control
same,T/C,"dose: 6.25 mg/kg/injection, schedule: Q04DX003 (ip), vehicle: water",91 % of control and 101 % of control
same,T/C,[13],103 % of control
same,T/C,"dose: 12.5 mg/kg/injection, schedule: Q04DX003 (ip), vehicle: water",97 % of control and 102 % of control
same,T/C,"dose: 25.0 mg/kg/injection, schedule: Q01DX009 (ip), vehicle: water",110 % of control
same,T/C,"dose: 25.0 mg/kg/injection, schedule: Q04DX003 (ip), vehicle: water",103 % of control and 119 % of control
same,T/C,"dose: 50.0 mg/kg/injection, schedule: Q01DX009 (ip), vehicle: water",94 % of control
same,T/C,"dose: 50.0 mg/kg/injection, schedule: Q04DX003 (ip), vehicle: water",91 % of control
same,T/C,"dose: 100.0 mg/kg/injection, schedule: Q01DX009 (ip), vehicle: water",103 % of control
O=C(NC(Cc1ccccc1)C(=O)O)OCc1ccccc1 (stereo not drawn),T/C,[6],120 % of control
same,T/C,[7],92 % of control
same,T/C,[9],100 % of control
same,T/C,[10],107 % of control
Cc1sc(N)c(C#N)c1C,T/C,"dose: 50.0 mg/kg/injection, schedule: Q04DX003 (ip), vehicle: saline with Tween-80",100 % of control
same,T/C,[7],120 % of control
same,T/C,[9],100 % of control
C[n+]1c(/C=N/NC(N)=S)ccc2ccccc21,T/C,[11],97 % of control
same,T/C,[14],106 % of control
same,T/C,[6],113 % of control
O=S1(=O)CCNNCC1,T/C,"dose: 25.0 mg/kg/injection, schedule: Q01DX001 (ip), vehicle: saline",110 % of control
same,T/C,"dose: 50.0 mg/kg/injection, schedule: Q01DX001 (ip), vehicle: saline",105 % of control
same,T/C,"dose: 100.0 mg/kg/injection, schedule: Q01DX001 (ip), vehicle: saline",120 % of control
same,T/C,"dose: 200.0 mg/kg/injection, schedule: Q01DX001 (ip), vehicle: saline",110 % of control
CCOC(=O)C(Cc1ccc(OC)c(OC)c1)C(Cc1ccc(OC)c(OC)c1)C(=O)OCC (stereo not drawn),T/C,[6],90 % of control
same,T/C,[8],104 % of control
CC(Br)C(=O)NC(CO)C(=O)O (stereo not drawn),T/C,[16],95 % of control
same,T/C,[4],91 % of control
same,T/C,[5],91 % of control
CCN(CC)C1=C(N(CC)CC)C(N(CC)CC)=C(N(CC)CC)C1=O.[C-]#[O+].[C-]#[O+].[C-]#[O+].[Fe],T/C,"dose: 100.0 mg/kg/injection, schedule: Q04DX003 (ip), vehicle: Klucel (hydroxypropylcellulose) (HPC)",101 % of control
same,T/C,"dose: 200.0 mg/kg/injection, schedule: Q04DX003 (ip), vehicle: Klucel (hydroxypropylcellulose) (HPC)",91 % of control
same,T/C,"dose: 400.0 mg/kg/injection, schedule: Q04DX003 (ip), vehicle: Klucel (hydroxypropylcellulose) (HPC)",115 % of control
